Measured values taken from patent publication US12590106B2, “Spiromacrocyclic orexin 2 receptor agonists” (H. Lundbeck A/S, priority 2023, dated 2026).
Like-named read-outs stand apart in the source and are kept apart here.

Biological target: T1, human Ox2R (Homo sapiens, UniProt O43614)
T1 construct: The gene encoding hOx2R was subcloned into the expression plasmid pcDNA5/FRT/TO; expressed in transfected cells; host or cells: CHO Flp-In cells (pcDNA5/FRT/TO with pOG44 Flp recombinase vector, hygromycin B selection)
T1 sequence (O43614 1-444): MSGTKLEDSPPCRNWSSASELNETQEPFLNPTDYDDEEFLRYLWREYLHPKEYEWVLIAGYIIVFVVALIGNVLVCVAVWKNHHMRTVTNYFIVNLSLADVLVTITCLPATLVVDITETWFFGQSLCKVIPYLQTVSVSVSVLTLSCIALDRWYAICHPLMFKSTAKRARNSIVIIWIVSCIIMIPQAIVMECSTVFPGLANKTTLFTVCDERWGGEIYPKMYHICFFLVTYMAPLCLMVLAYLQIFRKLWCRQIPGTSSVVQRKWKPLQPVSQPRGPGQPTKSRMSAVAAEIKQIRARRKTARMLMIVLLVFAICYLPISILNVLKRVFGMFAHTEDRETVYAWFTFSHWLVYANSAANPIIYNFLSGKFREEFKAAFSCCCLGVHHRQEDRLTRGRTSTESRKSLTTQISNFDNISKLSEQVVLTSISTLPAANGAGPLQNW
Test: Measurement of OX2R agonist activity (cell-based calcium release assay)
Conditions: for EC50: intracellular calcium
From the text: Measurement of OX2R Agonist Activity
The Ox2R has a broad signaling profile and couple to a range of different Gα-proteins. The cell-based calcium release assay is primarily assessing signaling through the Gαq signaling pathway, which promotes calcium mobilization via inositol triphosphate production upon activation of Ox2R.
A CHO Flp-In cell-line stably expressing the human Ox2R (hOx2R-CHO Flp-In) was established as follows: The gene encoding hOx2R was subcloned into the expression plasmid pcDNA5/FRT/TO and then transfected into CHO Flp-In cells together with the Flp recombinase vector, pOG44. Cells were cultured in growth medium: Ham's F12 (Gibco), 10% fetal bovine serum (Gibco) and 100 U/mL penicillin-streptomycin (Gibco) supplemented with hygromycin B (Thermo Fisher Scientific) as selection marker at 37° C. in the presence of 5% CO2.
To prepare the hOx2R-CHO FlpIn cells for calcium release assay, the cells were suspended in growth medium and seeded in black, clear-bottomed 384-well plates (Corning) at 10,000 cells/well. The plated cells were grown overnight at 37° C. and 5% CO2. The following day, the media was removed, and the cells were incubated with assay buffer (HBSS with 20 mM HEPES, pH 7.4) containing 2.5 mM probenecid (Thermo Fisher Scientific), 10 mM CaCl2, 0.1% pluronic F68 (Gibco) and 1× calcium-4 dye (Molecular Devices) for 1 h at 37° C. and 5% CO2. After incubation, cells were allowed to equilibrate at room temperature for 15 minutes and then loaded into FDSS7000Ex system (Hamamatsu Photonics) together with a plate containing test compounds serially diluted in assay buffer. Cells were stimulated with test compounds (online injection) and the agonist activity was determined as an increase in intracellular calcium concentration measured from the ratio of fluorescence emission at 542 nm by excitation at 480 nm. The agonist response for each applied concentration was assessed as the ratio: maximum fluorescence/average pre-stimulated fluorescence and was normalized to responses from assay buffer alone (0% response) and 10 μM Danavorexton (100% response). EC50 and Emax values were calculated from concentration-response curves by using Genedata Screener software.

[1] = hOx2R-CHO Flp-In cells, n≥2 tests, read-out: EC50
[2] = hOx2R-CHO Flp-In cells, normalized to assay buffer (0%) and 10 μM Danavorexton (100%), n≥2 tests, read-out: Emax (%)

Compound	EC50 [1]	Emax [2]	Emax (%) (hOx2R-CHO Flp-In cells, normalized to assay buffer (0%) and 10 μM Danavorexton (100%), n≥2 tests)	Emax	EC50 (EC50 (nM), hOx2R-CHO Flp-In cells, n≥2 tests)
CC1Oc2ccccc2-c2cccc(c2)C[C@@]2(CC[C@H](NS(C)(=O)=O)C2)c2nccc1n2 (single isomer, unassigned) [Example 88, N-[(1′S,9R*,15R)-9-methylspiro[8-oxa-13,22-diazatetracyclo[15.3.1.110,14.02,7]docosa-1(21),2,4,6,10,12,14(22),17,19-nonaene-15,3′-cyclopentane]-1′-yl]methanesulfonamide]	1600 nM	88%	–	–	–
C[C@@H]1Oc2ccccc2-c2cccc(c2)C[C@@]2(CC[C@H](NS(C)(=O)=O)C2)c2nccc1n2 (single isomer, unassigned) [Example 89, N-[(1′S,9S*,15R)-9-methylspiro[8-oxa-13,22-diazatetracyclo[15.3.1.110,14.02,7]docosa-1(21),2,4,6,10,12,14(22),17,19-nonaene-15,3′-cyclopentane]-1′-yl]methanesulfonamide]	3.7 nM	110%	–	–	–
C[C@H]1C[C@H](NS(C)(=O)=O)C[C@]12Cc1ccc(F)c(c1)-c1cccc(F)c1OCc1ccnc2n1 (single isomer, unassigned) [Example 94, N-[(1′S,4′S,15R)-6,20-difluoro-4′-methyl-spiro[8-oxa-13,22-diazatetracyclo[15.3.1.110,14.02,7]docosa-1(20),2,4,6,10,12,14(22),17(21),18-nonaene-15,3′-cyclopentane]-1′-yl]methanesulfonamide or N-[(1′R,4′R,15S)-6,20-difluoro-4′-methyl-spiro[8-oxa-13,22-diazatetracyclo[15.3.1.110,14.02,7]docosa-1(20),2,4,6,10,12,14(22),17(21),18-nonaene-15,3′-cyclopentane]-1′-yl]methanesulfonamide]	–	–	–	94%	6.7 nM
CS(=O)(=O)N[C@H]1CC[C@@]2(CO[C@H]3CC[C@H](CC3)c3nccc(n3)OCc3coc2n3)C1 [Example 1, N-[(1s,1′S,13S,16s)-spiro[7,11,15-trioxa-3,21,22-triazatetracyclo[14.2.2.12,6.19,12]docosa-2,4,6(22),9,12(21)-pentaene-13,3′-cyclopentane]-1′-yl]methanesulfonamide]	9.7 nM	98%	–	–	–
CS(=O)(=O)N[C@H]1CC[C@@]2(Cc3cccc(c3)-c3cccc(n3)OCCc3coc2n3)C1 [Example 4, N-[(1′S,8R)-spiro[10,15-dioxa-20,21-diazatetracyclo[14.3.1.12,6.19,12]docosa-1(19),2(22),3,5,9(21),11,16(20),17-octaene-8,3′-cyclopentane]-1′-yl]methanesulfonamide]	330 nM	100%	–	–	–
CS(=O)(=O)N[C@H]1CC[C@@]2(Cc3ccc(F)c(c3)-c3cccc(F)c3OCC3=CN=C2O3)C1 [Example 7, N-[(1′S,14R)-6,19-difluorospiro[8,21-dioxa-12-azatetracyclo[14.3.1.110,13.02,7]henicosa-1(19),2,4,6,10,12,16(20),17-octaene-14,3′-cyclopentane]-1′-yl]methanesulfonamide]	21 nM	99%	–	–	–
CS(=O)(=O)N[C@H]1CC[C@@]2(Cc3cccc(c3)-c3cccnc3OCc3coc2n3)C1 [Example 9, N-[(1′S,14R)-spiro[8,12-dioxa-6,21-diazatetracyclo[14.3.1.110,13.02,7]henicosa-1(20),2,4,6,10,13(21),16,18-octaene-14,3′-cyclopentane]-1′-yl]methanesulfonamide]	10 nM	98%	–	–	–

More lines, main results first:

EC50 [1]	Emax [2]	Emax (%) (hOx2R-CHO Flp-In cells, normalized to assay buffer (0%) and 10 μM Danavorexton (100%), n≥2 tests)	Compound	Emax	EC50 (EC50 (nM), hOx2R-CHO Flp-In cells, n≥2 tests)
1.4 nM	99%	–	CS(=O)(=O)NC1CCC2(C1)c1nc(co1)COc1c(F)cccc1-c1cc(ccc1F)C2F (single isomer, unassigned) [Example 77, N-[(1′S,14R,15S or 15R)-6,15,19-trifluorospiro[8,12-dioxa-21-azatetracyclo[14.3.1.110,13.02,7]henicosa-1(19),2,4,6,10,13(21),16(20),17-octaene-14,3′-cyclopentane]-1′-yl]methanesulfonamide]	–	–
0.17 nM	–	95%	CS(=O)(=O)NC1CCC2(C1)c1nc(co1)COc1c(F)cccc1-c1cc(ccc1F)C2F (single isomer, unassigned) [Example 78, N-[(1′S,14R,15S or 15R)-6,15,19-trifluorospiro[8,12-dioxa-21-azatetracyclo[14.3.1.110,13.02,7]henicosa-1(19),2,4,6,10,13(21),16(20),17-octaene-14,3′-cyclopentane]-1′-yl]methanesulfonamide]	–	–
0.43 nM	99%	–	CS(=O)(=O)N[C@H]1CC[C@@]2(CO[C@H]3CC[C@H](CC3)c3ccccc3OCc3coc2n3)C1 [Example 2, N-[(1s,1′S,14R,17s)-spiro[8,12,16-trioxa-22-azatetracyclo[15.2.2.110,13.02,7]docosa-2,4,6,10,13(22)-pentaene-14,3′-cyclopentane]-1′-yl]methanesulfonamide]	–	–
0.97 nM	99%	–	C[C@@H]1Oc2c(F)cccc2-c2cc(ccc2F)C[C@@]2(CC[C@H](NS(C)(=O)=O)C2)c2nc1co2 [Example 3, N-[(1′S,9S,14R)-6,19-difluoro-9-methyl-spiro[8,12-dioxa-21-azatetracyclo[14.3.1.110,13.02,7]henicosa-1(19),2(7),3,5,10,13(21),16(20),17-octaene-14,3′-cyclopentane]-1′-yl]methanesulfonamide]	–	–
0.36 nM	100%	–	[2H]C1([2H])Oc2ccccc2-c2cc(ccc2F)C[C@@]2(CC[C@H](NS(C)(=O)=O)C2)c2nc1co2 [Example 5, N-[(1′S,14R)-9,9-dideuterio-19-fluoro-spiro[8,12-dioxa-21-azatetracyclo[14.3.1.110,13.02,7]henicosa-1(19),2,4,6,10,13(21),16(20),17-octaene-14,3′-cyclopentane]-1′-yl]methanesulfonamide]	–	–
0.11 nM	100%	–	[2H]C1([2H])Oc2c(F)cccc2-c2cc(ccc2F)C[C@@]2(CC[C@H](NS(C)(=O)=O)C2)c2nc1co2 [Example 6, N-[(1′S,14R)-9,9-dideuterio-6,19-difluoro-spiro[8,12-dioxa-21-azatetracyclo[14.3.1.110,13.02,7]henicosa-1(19),2,4,6,10,13(21),16(20),17-octaene-14,3′-cyclopentane]-1′-yl]methanesulfonamide]	–	–
1.5 nM	100%	–	CS(=O)(=O)N[C@H]1CC[C@@]2(Cc3cc(ccc3F)-c3ccccc3OCc3coc2n3)C1 [Example 10, N-[(1′S,14R)-17-fluorospiro[8,12-dioxa-21-azatetracyclo[14.3.1.110,13.02,7]henicosa-1(19),2,4,6,10,13(21),16(20),17-octaene-14,3′-cyclopentane]-1′-yl]methanesulfonamide]	–	–
0.68 nM	97%	–	CCS(=O)(=O)N[C@H]1CC[C@@]2(Cc3ccc(F)c(c3)-c3ccccc3OCc3coc2n3)C1 [Example 11, N-[(1′S,14R)-19-fluorospiro[8,12-dioxa-21-azatetracyclo[14.3.1.110,13.02,7]henicosa-1(19),2,4,6,10,13(21),16(20),17-octaene-14,3′-cyclopentane]-1′-yl]ethanesulfonamide]	–	–
0.19 nM	100%	–	CNS(=O)(=O)N[C@H]1CC[C@@]2(Cc3ccc(F)c(c3)-c3ccccc3OCc3coc2n3)C1 [Example 12, (1′S,14R)-19-fluoro-N-(methylsulfamoyl)spiro[8,12-dioxa-21-azatetracyclo[14.3.1.110,13.02,7]henicosa-1(19),2,4,6,10,13(21),16(20),17-octaene-14,3′-cyclopentane]-1′-amine]	–	–
